Values of other authors in patent publication US4127530A, “Novel heneicosapeptides, intermediates therefor and pharmaceutical compositions and methods employing said heneicosapeptides” (priority 1977, dated 1978).

Tests used:
[1] = system: partially purified brain opiate receptor sites; settings: for opioid activity in binding to partially purified brain opiate receptor sites: fragments isolated from the pituitary
[2] = injected directly into the brain of the rat

Row | Substance | opioid activity in binding to partially purified brain opiate receptor sites [1] | binding to partially purified brain opiate receptor sites ([1]; natural peptide) | analgesic activity [2]
1 | γ-endorphin | potent opioid activity | – | –
2 | H-Tyr-Gly-Gly-Phe-Met-OH [methionine enkephalin] | – | binds stereo-specifically | weak analgesic agent of short duration
3 | β-endorphin: β-lipotropin fragment 61-91 | potent opioid activity | – | –
4 | α-endorphin | potent opioid activity | – | –
